Measured values taken from patent US8828438B2, “Pharmaceutical compositions of cholesteryl ester transfer protein inhibitors and HMG-CoA reductase” (Bend Research, Inc., priority 2005, dated 2014).

Experiment: aqueous solubility
Assay type: physicochemical
Details: aqueous environment, water; aqueous environments; about 22° C. unless otherwise specified
Text: The CETP inhibitor may be any compound capable of inhibiting the cholesteryl ester transfer protein. Solid amorphous dispersions are particularly useful for CETP inhibitors that have sufficiently low aqueous solubility, low bioavailability or slow rate of absorption such that it is desirable to increase their concentration in an aqueous environment of use. The CETP inhibitor is typically “sparingly water-soluble,” which means that the CETP inhibitor has a minimum aqueous solubility of less than about 1 to 2 mg/mL at any physiologically relevant pH (e.g., pH 1-8) and at about 22° C. Many CETP inhibitors are “substantially water-insoluble,” which means that the CETP inhibitor has a minimum aqueous solubility of less than about 0.01 mg/mL (or 10 μg/ml) at any physiologically relevant pH (e.g., pH 1-8) and at about 22° C. (Unless otherwise specified, reference to aqueous solubility herein and in the claims is determined at about 22° C.) Compositions of the present invention find greater utility as the solubility of the CETP inhibitors decreases, and thus are preferred for CETP inhibitors with solubilities less than about 10 μg/mL, more preferred for CETP inhibitors with solubilities less than about 2 μg/mL, and even more preferred for CETP inhibitors with solubilities less than about 1 μg/mL. […]

With `CCOC(=O)N1c2ccc(C(F)(F)F)cc2[C@@H](N(Cc2cc(C(F)(F)F)cc(C(F)(F)F)c2)C(=O)OC)C[C@H]1CC` [torcetrapib, [2R,4S]-4-[(3,5-bis-trifluoromethyl-benzyl)-methoxycarbonyl-amino]-2-ethyl-6-trifluoromethyl-3,4-dihydro-2H-quinoline-1-carboxylic acid ethyl ester] the solubility was < 0.04 µg/mL.
